Test system: hiPSC-derived hepatocytes
Test: Lipid accumulation and insulin resistance in hiPSC-derived hepatocytes / human mini liver
Format: cell-based
Conditions: overnight culture
Source text: FIGS. 6A-6H are schematics and images showing generation of functional human mini-organs in a dish. FIG. 6A is a schematic showing generation of functional human mini organs including human islets, pancreas, liver, heart, and intestine. FIGS. 6B-6C show the generation of a human heart organoid. FIG. 6B (top) provides a schematic illustrating the protocol for differentiation of a human pluripotent stem cell (hPSC) into a cardiomyocyte (when cultured in 2D) or into a mini heart (when co-cultured with hADSCs and HUVECs in 3D). FIG. 6B (bottom left) provides a plot showing relative expression of cardiomyocyte-specific genes human MLC2a (hMLC2a), human Nkx2-5 (hNkx2-5), alpha myosin heavy chain (alphaMHC), and KCNQ1 before (day 0) and at day 18 of the differentiation protocol, with and without the PPARδ agonist GW501516. At the bottom right of FIG. 6B is a videomicrograph showing beating of the hiPSC-derived cardiomyocytes. […] FIGS. 6D-6F show generation of a human liver organoid. FIG. 6D (top) provides a schematic illustrating the protocol for differentiation of a human pluripotent stem cell (hPSC) into hepatocytes. FIG. 6D (bottom left) provides a plot showing relative expression of hepatocyte-specific genes AFP, ALB, and Cyp3a7, during the differentiation of 6 independent preparations. At the bottom right of FIG. 6D is a micrograph showing hiPSC-derived hepatocytes. […]

phosphatidic acid
lipid droplets in hiPSC-derived hepatocytes: accumulation of lipid droplets

From patent US11685901B2, “Compositions and methods for organoid generation and disease modeling” (Salk Institute for Biological Studies, priority 2016, dated 2023)
